Consider 19 compounds from patent US11179329B2, “Therapeutical use of H3-ligands” (BIOPROJET Pharma, priority 2017, dated 2021).

Where two headings read alike, the source gives them in different places.

Series [1] is described as follows: Comparative pharmacokinetic data in mice (plasma and brain). Particulars: male swiss mice; for AUC brain / AUC plasma: normalized at 1 mg of base/kg, 24 hours sampling.
Method: (§1) Compounds were administered to male swiss mice at a dose close to 1 mg of base/kg.
For series [2] the following is noted: mouse, in vivo.
Method: as §1
The target of a further series is histamine H3 receptor (Homo sapiens, UniProt Q9Y5N1). Particulars: cited from earlier work.
For series [3] the following is noted: in vivo; cited from earlier work.
The subject of another series is H3 receptor. Kind of series: H3R occupancy in brain by PET imaging with [11C]GSK189254 in healthy volunteers. The class given is in vivo. Conditions: human.
Series [4] can be described thus: PK results in human, Compound (A) given orally once-a-day. The class given is in vivo. Particulars: for Cmax: serum, po, 90 ug.
For another series, the system named is vigilance. Kind of series: Activity on vigilance in human. It counts as in vivo.
A short description of series [5]: PK results in human, Compound (A) given orally once-a-day. The class given is in vivo. Conditions: for Cmax: po, 60 ug. The method, then: Steady state seems to be attained after 7 to 8 days of treatment for the 60 μg dose.
A short description of series [6]: Solid-state stability / hygroscopicity of the dihydrochloride forms. The class given is physicochemical. As to the method: The tetrahydrate of compound (A) is stable for relative humidity ranging from at least 30% to 70% which is an improved property as compared to the hygroscopic nature of the previously described dihydrochloride. The tetrahydrate of compound (A) is also stable for temperatures ranging from 20° C. to 40° C.

Chain of histamine H3 receptor (Q9Y5N1 whole entry, species assumed): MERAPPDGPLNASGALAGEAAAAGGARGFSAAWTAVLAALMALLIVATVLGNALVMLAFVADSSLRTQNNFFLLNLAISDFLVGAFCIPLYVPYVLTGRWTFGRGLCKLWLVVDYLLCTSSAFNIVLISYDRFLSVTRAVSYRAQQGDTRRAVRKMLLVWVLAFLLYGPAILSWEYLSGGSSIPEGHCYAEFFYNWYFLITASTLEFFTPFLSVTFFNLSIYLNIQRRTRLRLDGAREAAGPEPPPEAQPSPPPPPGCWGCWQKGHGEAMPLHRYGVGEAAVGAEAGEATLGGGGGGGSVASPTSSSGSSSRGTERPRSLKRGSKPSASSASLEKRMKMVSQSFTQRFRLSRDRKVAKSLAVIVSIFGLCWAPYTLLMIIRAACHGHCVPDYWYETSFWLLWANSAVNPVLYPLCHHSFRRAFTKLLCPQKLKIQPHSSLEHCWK

Turning to `C[C@H]1CCCN(CCCOc2ccc(-c3cc[n+]([O-])cc3)cc2)C1.O=C(O)c1cc2ccccc2c(Cc2c(O)c(C(=O)O)cc3ccccc23)c1O` [Example 8, (3S)-4-{4-[3-(3-methylpiperidin-1-yl)propoxy]phenyl}pyridine 1-oxide pamoate], in [1], the “ratio of plasma AUC over the AUC of the dihydrochloride tetrahydrate” value (“ratio of plasma AUC” below) turned out to be 0.9, the AUC brain worked out at 952 ng·h/g and the AUC plasma turned out to be 587 ng·h/mL.
In the case of `C[C@H]1CCCN(CCCOc2ccc(-c3cc[n+]([O-])cc3)cc2)C1.C[C@H]1CCCN(CCCOc2ccc(-c3cc[n+]([O-])cc3)cc2)C1.Cc1ccc(S(=O)(=O)O)cc1.Cc1ccc(S(=O)(=O)O)cc1.O.O.O.O.O` [Example 10, (3S)-4-{4-[3-(3-methylpiperidin-1-yl)propoxy]phenyl}pyridine 1-oxide para-toluenesulfonate sestertihydrate (2.5)], the “ratio of plasma AUC” value in [2] worked out at 1.2.
As for “(3S)-4-{4-[3-(3-methylpiperidin-1-yl)propoxy]phenyl}pyridine 1-oxide orotate dihydrate [Example 17]”, in [1], the “ratio of plasma AUC” value worked out at 0.6, the AUC brain stood at 529 ng·h/g and the AUC plasma amounted to 389 ng·h/mL.
On to `C[C@H]1CCCN(CCCOc2ccc(-c3cc[n+]([O-])cc3)cc2)C1.O=C(O)C(=O)O` [Example 6, (3S)-4-{4-[3-(3-methylpiperidin-1-yl)propoxy]phenyl}pyridine 1-oxide oxalate], for which, in [1], the “ratio of plasma AUC” value was determined as 0.9, the AUC brain worked out at 923 ng·h/g and the AUC plasma was determined as 562 ng·h/mL.
For `C[C@H]1CCCN(CCCOc2ccc(-c3cc[n+]([O-])cc3)cc2)C1.O=S(=O)(O)O` [Example 15, (3S)-4-{4-[3-(3-methylpiperidin-1-yl)propoxy]phenyl}pyridine 1-oxide sulfate], in that order: 0.8, 639 ng·h/g and 466 ng·h/mL.
Taken in the same sequence, the figures for `C[C@H]1CCCN(CCCOc2ccc(-c3cc[n+]([O-])cc3)cc2)C1.O=C(O)/C=C/C(=O)O` [Example 9, (3S)-4-{4-[3-(3-methylpiperidin-1-yl)propoxy]phenyl}pyridine 1-oxide fumarate] were 0.7, 882 ng·h/g and 448 ng·h/mL.
Consider `C[C@H]1CCCN(CCCOc2ccc(-c3cc[n+]([O-])cc3)cc2)C1.O=P(O)(O)O` [Example 12, (3S)-4-{4-[3-(3-methylpiperidin-1-yl)propoxy]phenyl}pyridine 1-oxide phosphate], for which, in [1], the “ratio of plasma AUC” value turned out to be 0.6, the AUC brain was found to be 630 ng·h/g and the AUC plasma stood at 350 ng·h/mL.
As for `CCO.C[C@H]1CCCN(CCCOc2ccc(-c3cc[n+]([O-])cc3)cc2)C1.C[C@H]1CCCN(CCCOc2ccc(-c3cc[n+]([O-])cc3)cc2)C1.O.O.O=S(=O)(O)c1cccc2c(S(=O)(=O)O)cccc12.O=S(=O)(O)c1cccc2c(S(=O)(=O)O)cccc12` [Example 11, (3S)-4-{4-[3-(3-methylpiperidin-1-yl)propoxy]phenyl}pyridine 1-oxide 1,5-naphtalenedisulfonate monohydrate hemiethanolate], in series [2], the “ratio of plasma AUC” value is reported as 0.7.
In the case of `[11CH3]NC(=O)c1ccc(Oc2ccc3c(c2)CCN(C2CCC2)CC3)nc1` [[^11C]GSK189254], the “affinity for the histamine H3 receptor” value on histamine H3 receptor is on record as “high affinity”. In addition, in [3], the brain penetration result was “good brain penetration” and the terminal half-life was 1.6 ± 0.4 h.
For the compound `C[C@H]1CCCN(CCCOc2ccc(-c3cc[n+]([O-])cc3)cc2)C1.O=C(O)c1cc2ccccc2cc1O` [Example 20, (3S)-4-{4-[3-(3-methylpiperidin-1-yl)propoxy]phenyl}pyridine 1-oxide 3-hydroxy-2-naphtoate], the “ratio of plasma AUC” value in [2] came to 0.6.
As to `Br.Br.C[C@H]1CCCN(CCCOc2ccc(-c3cc[n+]([O-])cc3)cc2)C1` [Example 16, (3S)-4-{4-[3-(3-methylpiperidin-1-yl)propoxy]phenyl}pyridine 1-oxide dibromhydrate], in series [2], the “ratio of plasma AUC” value is 0.6.
Regarding “(3S)-4-{4-[3-(3-methylpiperidin-1-yl)propoxy]phenyl}pyridine 1-oxide sesquiglycolate monohydrate [Example 21]”, in [1], the “ratio of plasma AUC” value is 0.6, the AUC brain was 484 ng·h/g and the AUC plasma was 348 ng·h/mL.
`C[C@H]1CCCN(CCCOc2ccc(-c3cc[n+]([O-])cc3)cc2)C1.O.O=C(O)c1ccc2ccccc2c1O` [Example 19, (3S)-4-{4-[3-(3-methylpiperidin-1-yl)propoxy]phenyl}pyridine 1-oxide 1-hydroxy-2-naphtoate monohydrate]: the “ratio of plasma AUC” value in [2] worked out at 0.6.
For the compound `Br.C[C@H]1CCCN(CCCOc2ccc(-c3cc[n+]([O-])cc3)cc2)C1` [Example 13, (3S)-4-{4-[3-(3-methylpiperidin-1-yl)propoxy]phenyl}pyridine 1-oxide bromhydrate], the “ratio of plasma AUC” value in series [2] turned out to be 0.6.
Turning to `C[C@H]1CCCN(CCCOc2ccc(-c3cc[n+]([O-])cc3)cc2)C1.O.O.O.O=C(O)C(O)C(O)C(=O)O` [Example 7, (3S)-4-{4-[3-(3-methylpiperidin-1-yl)propoxy]phenyl}pyridine 1-oxide L-tartrate trihydrate], in series [1], the “ratio of plasma AUC” value amounted to 0.7, the AUC brain was determined as 814 ng·h/g and the AUC plasma stood at 447 ng·h/mL.
For “(3S)-4-{4-[3-(3-methylpiperidin-1-yl)propoxy]phenyl}pyridine 1-oxide 5-sulfosalicylate [Example 18]”, in that order: 0.6, 513 ng·h/g and 400 ng·h/mL.
A word on the Cmax: it is the highest concentration seen after dosing. For the compound `C[C@H]1CCCN(CCCOc2ccc(-c3cc[n+]([O-])cc3)cc2)C1` [Compound (A), (3S)-4-{4-[3-(3-methylpiperidin-1-yl)propoxy]phenyl}pyridine 1-oxide], in the series on H3 receptor (30 μg once), the “Percent H3R occupancy ± SD At through (24 h)” value was −46.50 ± 12.71%. Moreover, the “potency relative to the marketed drug pitolisant” value in the series with H3 receptor (doses of equal H3R occupancy) is listed as 1,000 fold. For the same compound, the “decrease of total body clearance (Clss/F) after repeated dosing” value in series [4] (90 μg) was found to be 74%; in series [5] (human, 60 μg), 65%. The “higher AUC0-24 h after repeated administration (% accumulation)” value in series [4] (90 μg) is 113%. Moreover, the “higher Cmax after repeated administration (% accumulation)” value in series [4] (90 μg) stood at 101%. For the same compound, the Cmax in series [4] (oral 90 μg once-a-day, after repeated dose) came to 0.344 ng/mL; in [4] (oral 90 μg, after a single dose) it was 0.171 ng/mL; in [5] (human, serum, human, oral 60 μg once-a-day, after repeated dose) it was 0.172 ng/mL; in [5] (human, serum, human, oral 60 μg, after a single dose), 0.121 ng/mL. The activity on vigilance entry in the series with vigilance (30 μg daily, when going to bed at night) is on record as “delay in falling asleep”. Further, the “effect of repeated treatment on sleep” value in the series with vigilance (90 μg once-a-day for 10 days) is “some insomnia”. Further, the “dose proportionality of serum exposure (mean Cmax and AUC0-24 h dose normalized ratios)” value in [5] (human volunteers, between 60 and 90 μg o.d., Day 1 and Day 10) is on record as “tendency to increase more than dose-proportionally”. For the same compound, in series [5] (human, 60 μg), the “higher AUC0-24 h after repeated dosing (Day 10) than after a single dose (Day 1)” value is listed as 73%. In addition, the “higher Cmax after repeated dosing (Day 10) than after a single dose (Day 1)” value in series [5] (human, 60 μg) was 42%. Also, the half-life in series [5] (serum, oral, human, determined at Day 10 after multiple administrations, read-out: mean t1/2 (converted)) is around 33 h.
On to `C[C@H]1CCCN(CCCOc2ccc(-c3cc[n+]([O-])cc3)cc2)C1.Cl.Cl.O.O.O.O` [Example 4, (3S)-4-{4-[3-(3-methylpiperidin-1-yl)propoxy]phenyl}pyridine 1-oxide dihydrochloride tetrahydrate], for which, in series [6], the “stability (general)” value is recorded as “very stable”. In addition, the “stability against relative humidity” value in series [6] (relative humidity ranging from at least 30% to 70%) is recorded as “stable”. In addition, the stability against temperature entry in series [6] (temperatures ranging from 20° C. to 40° C.) is reported as “stable”. Further, in series [1], the “ratio of plasma AUC” value stood at 1.0, the AUC brain was found to be 1040 ng·h/g and the AUC plasma came to 619 ng·h/mL.
For `C[C@H]1CCCN(CCCOc2ccc(-c3cc[n+]([O-])cc3)cc2)C1` [Example 5, (3S)-4-{4-[3-(3-methylpiperidin-1-yl)propoxy]phenyl}pyridine 1-oxide base], in series [1], the “ratio of plasma AUC” value is recorded as 1.2, the AUC brain amounted to 860 ng·h/g and the AUC plasma came out at 769 ng·h/mL.
